From patent US12612412B2, “Antiviral heterocyclic compounds” (Enanta Pharmaceuticals, Inc., priority 2021, dated 2026)
Where two headings read alike, the source gives them in different places.

Tests used:
[1] = test system: genotype A, "Long" strain RSV; test: RSV-A assay (CPE protection in Hep-2 cells, ATPlite readout); type: cell-based, Human respiratory syncytial virus (HRSV); settings: human respiratory syncytial virus, MOI 0.1, CPE protection
Method in brief: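 Hep-2 cells (8,000/well) infected with RSV Long strain at MOI 0.1 in the presence of 2-fold compound dilutions in duplicate. After 5 days, cell viability measured by ATPlite luminescence, normalized between virus-only and uninfected cell controls; EC50 reported.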

[2] = test system: HMPV clinical isolate TN/1501/A1; test: HMPV antiviral assay Method-B (clinical isolate TN/1501/A1 in LLC-MK2 cells, ATP-Lite readout); type: cell-based, Human metapneumovirus (HMPV); settings: human metapneumovirus, LLC-MK2, 144 h, hMPV WT1501 (clinical isolate TN/1501/A1), 6 days
Method in brief: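 EC50 derived by four-parameter logistic fit of percent cell health, measured by ATP-Lite luminescence and normalised to virus-only and uninfected-cell controls. Compounds run in duplicate from 10 μM top, 3-fold, 10 points. Infection: LLC-MK2 cells, MOI 0.014, 2 μg/mL final TPCK-trypsin, serum-free, 6 days at 37° C.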

[3] = genotype A “Long” strain RSV, read-out: Human RSV-A (“Long”)
[4] = RSV-A Long strain, read-out: Human RSV-A (“Long”) EC50

| SMILES | EC50 [1, 3] | EC50 [2] | EC50 [1, 4] |
| --- | --- | --- | --- |
| Cc1cnc2c(OC(F)F)cc(C(=O)NC[C@](O)(c3cc4c(c(-c5ccc(F)cc5)n3)OC[C@]4(C(N)=O)C(F)F)C(F)(F)F)cc2c1 [Example 1006] |  | > 500 nM | > 200 nM |
| COc1cc(C(=O)NC[C@](O)(c2cc3c(c(-c4ccc(F)c(F)c4F)n2)OC[C@]3(C(N)=O)C(F)F)C(F)(F)F)cc2cc(Cl)c(C)nc12 [Example 1040] |  | > 500 nM | < 200 nM |
| COc1cc(C(=O)NC[C@](O)(c2cc3c(c(-c4ccc(F)cc4)n2)OC[C@@]3(CF)C(N)=O)C2CC2)cc2cn(C(F)F)nc12 [Example 1061] |  | > 500 nM | > 200 nM |
| COc1cc(C(=O)NCC(O)(c2cc3c(c(-c4ccc(OC(F)(F)F)c(F)c4)n2)OC[C@]3(C)C(N)=O)C(F)(F)F)cc2cn(C3CC3)nc12 (stereo partly drawn) [Example 927] |  | > 500 nM | < 200 nM |
| COc1cc(C(=O)NCC(O)(c2cc3c(c(-c4cnn(C)c4)n2)OC[C@]3(C)C(N)=O)C(F)(F)F)cc2cn(C3CC3)nc12 (stereo partly drawn) [Example 903] |  | > 500 nM | < 200 nM |
| C[C@]1(C(N)=O)COc2c1cc([C@@](O)(CNC(=O)c1cc(OC3CC3)c3nc(Cl)ccc3c1)C1CC1)nc2-c1ccc(F)c(F)c1Cl [Example 1194] |  | > 500 nM | < 200 nM |
| COc1cc(C(=O)NC[C@](O)(c2cc3c(c(-c4ccc(Cl)cc4)n2)OC[C@]3(C)C(N)=O)C(F)(F)F)cc2cn(C3CC3)nc12 [Example 585] | < 200 nM | > 500 nM |  |
| COc1cc(C(=O)NC[C@](O)(c2cc3c(c(-c4ccc(-c5ccccc5)cc4)n2)OC[C@]3(C)C(N)=O)C(F)(F)F)cc2cn(C3CC3)nc12 [Example 1249] |  | > 500 nM | > 200 nM |
| C[C@]1(C(N)=O)COc2c1cc([C@@](O)(CNC(=O)c1ccc(F)c(NC(=O)NC3CC3)c1)C(F)(F)F)nc2-c1ccc(F)cc1 [Example 623] | < 200 nM | > 500 nM |  |
| COc1cc(C(=O)NC[C@](O)(c2cc3c(c(-c4ccc(Cl)c(Cl)c4)n2)OC[C@]3(C)C(N)=O)C(F)(F)F)cc2cn(C3CC3)nc12 [Example 935] |  | > 500 nM | < 200 nM |
| C[C@]1(C(N)=O)COc2c1cc([C@@](O)(CNC(=O)c1ccc3nn(C4CC4)cc3c1)C1CC1)nc2-c1ccc2c(c1)OC(F)(F)O2 [Example 831] |  | < 500 nM | < 200 nM |
| COc1cc(C(=O)NC[C@](O)(c2cc3c(c(-c4ccc(F)cc4)n2)OC[C@@]3(CF)C(N)=O)C2CC2)cc2cn(C3CC3)nc12 [Example 1063] |  | > 500 nM | > 200 nM |
| COc1cc(C(=O)NC[C@](O)(c2cc3c(c(-c4ccc(F)c(F)c4F)n2)OC[C@]3(C)C(N)=O)C2CC2)cc2cn(C3(F)CC3)nc12 [Example 537] | < 200 nM | < 500 nM |  |
| COc1cc(C(=O)NC[C@](O)(c2cc3c(c(C4=CCC(F)(F)CC4)n2)OC[C@]3(C)C(N)=O)C(F)(F)F)cc2cn(C3CC3)nc12 [Example 1228] |  | > 500 nM | < 200 nM |
| COc1cc(C(=O)NC[C@](O)(c2cc3c(c(-c4ccc(F)cc4)n2)OC[C@]3(C)C(N)=O)C(F)(F)F)cc2cc(Cl)c(Cl)nc12 [Example 1104] |  | > 500 nM | > 200 nM |
| COc1cc(C(=O)NC[C@](O)(c2cc3c(c(-c4cc(F)c(F)cc4Cl)n2)OC[C@]3(C)C(N)=O)C(F)(F)F)cc2cn(C3CC3)nc12 [Example 654] | < 200 nM | < 500 nM |  |
| COc1cc(C(=O)NC[C@](O)(c2cc3c(c(-c4ccc(F)cc4Cl)n2)OC[C@]3(C)C(N)=O)C(F)(F)F)cc2cc(C3CC3)nn12 [Example 510] | < 200 nM | < 500 nM |  |
| COc1cc(C(=O)NC[C@](O)(c2cc3c(c(-c4ccc(F)c(F)c4F)n2)OC[C@]3(C(N)=O)C(F)F)C(F)(F)F)cc2cn(C3CC3)nc12 [Example 1038] |  | > 500 nM | > 200 nM |
| Cc1cnc2c(Cl)cc(C(=O)NC[C@](O)(c3cc4c(c(-c5ccc(Cl)c(F)c5F)n3)OC[C@]4(C)C(N)=O)C3CC3)cc2c1 [Example 688] | < 200 nM | < 500 nM |  |
| C[C@]1(C(N)=O)COc2c1cc([C@@](O)(CNC(=O)c1cc(F)c3nc(C4CC4)cn3c1)C1CC1)nc2-c1ccc2c(c1)OC(F)(F)O2 [Example 549] | < 200 nM | < 500 nM |  |
| COc1cc(C(=O)NC[C@](O)(c2cc3c(c(-c4ccc5c(c4)OC(F)(F)O5)n2)OC[C@]3(C(N)=O)C(F)F)C(F)(F)F)cc2cc(Cl)c(C)nc12 [Example 1036] |  | > 500 nM | > 200 nM |
| COc1cc(C(=O)NC[C@](O)(c2cc3c(c(-c4ccc5c(c4)OC(F)(F)O5)n2)OC[C@]3(C)C(N)=O)C2CC2)cc2cc(Cl)c(C)nc12 [Example 825] | < 200 nM | < 500 nM |  |
| COc1cc(C(=O)NC[C@](O)(c2cc3c(c(-c4ccc(F)cc4Cl)n2)OC[C@]3(C)C(N)=O)C(F)(F)F)cc2cn(C3CC3)nc12 [Example 993] |  | < 500 nM | < 200 nM |
| COc1cc(C(=O)NC[C@](O)(c2cc3c(c(-c4ccc(F)c(F)c4F)n2)OC[C@]3(C)C(N)=O)C(F)(F)F)cc2cn(C3CC3)nc12 [Example 915] |  | < 500 nM | < 200 nM |
| COc1cc(C(=O)NCC(O)(c2cc3c(c(-c4cc(F)c(F)c(Cl)c4)n2)OC[C@]3(C)C(N)=O)C(F)(F)F)cc2cn(C3CC3)nc12 (stereo partly drawn) [Example 931] |  | < 500 nM | < 200 nM |
| COc1cc(C(=O)NC[C@](O)(c2cc3c(c(-c4ccc(F)cc4)n2)OC[C@]3(C)C(N)=O)C(F)(F)F)cc2cn(C(F)(F)F)nc12 [Example 1068] |  | < 500 nM | < 200 nM |
| Cc1nc2c(OC3CC3)cc(C(=O)NC[C@](O)(c3cc4c(c(-c5ccc(F)cc5)n3)OC[C@]4(C)C(N)=O)C3(F)CC3)cc2cc1Cl [Example 739] | < 200 nM | < 500 nM |  |

The remaining lines, values ahead:

| EC50 [1, 3] | EC50 [2] | EC50 [1, 4] | SMILES |
| --- | --- | --- | --- |
| < 200 nM | < 500 nM |  | Cc1nc2c(OC3CC3)cc(C(=O)NC[C@](O)(c3cc4c(c(-c5ccc6c(c5)OC(F)(F)O6)n3)OC[C@]4(C)C(N)=O)C3CC3)cc2cc1Cl [Example 540] |
|  | < 500 nM | < 200 nM | COc1cc(C(=O)NC[C@](O)(c2cc3c(c(-c4cccc(Br)c4F)n2)OC[C@]3(C)C(N)=O)C2CC2)cc2cn(C3CC3)nc12 [Example 1085] |
| < 200 nM | < 500 nM |  | COc1cc(C(=O)NC[C@](O)(c2cc3c(c(-c4ccc(F)c(Cl)c4F)n2)OC[C@]3(C)C(N)=O)C(F)(F)F)cc2cn(C(F)F)nc12 [Example 551] |
|  | < 500 nM | < 200 nM | COc1cc(C(=O)NC[C@](O)(c2cc3c(c(-c4cc(F)ccc4F)n2)OC[C@]3(C)C(N)=O)C(F)(F)F)cc2cn(C3CC3)nc12 [Example 992] |
| < 200 nM | < 500 nM |  | C[C@]1(C(N)=O)COc2c1cc([C@@](O)(CNC(=O)c1cc(OCC3CC3)c3nn(C4(F)CC4)cc3c1)C(F)(F)F)nc2-c1csc2c(F)cccc12 [Example 610] |
| < 200 nM | < 500 nM |  | COc1cc(C(=O)NC[C@](O)(c2cc3c(c(-c4cc(F)c(F)cc4Cl)n2)OC[C@]3(C)C(N)=O)C2CC2)cc2cn(C3(F)CC3)nc12 [Example 659] |
|  | < 500 nM | < 200 nM | COc1cc(C(=O)NC[C@](O)(c2cc3c(c(-c4c(F)cc(Cl)cc4F)n2)OC[C@]3(C)C(N)=O)C(F)(F)F)cc2cn(C3CC3)nc12 [Example 961] |
| < 200 nM | < 500 nM |  | COc1cc(C(=O)NC[C@](O)(c2cc3c(c(-c4ccc(F)c(C(F)(F)F)c4)n2)OC[C@]3(C)C(N)=O)C2CC2)cc2cn(C(F)F)nc12 [Example 655] |
|  | < 500 nM | < 200 nM | C[C@]1(C(N)=O)COc2c1cc([C@@](O)(CNC(=O)c1cc(Cl)c3nn(C4CC4)cc3c1)C1CC1)nc2-c1cc(F)c(Cl)cc1F [Example 1179] |
| < 200 nM | < 500 nM |  | COc1cc(C(=O)NC[C@](O)(c2cc3c(c(-c4ccc(F)c(Cl)c4F)n2)OC[C@]3(C)C(N)=O)C(F)(F)F)cc2cc(Cl)c(C)nc12 [Example 552] |
| < 200 nM | < 500 nM |  | Cc1nc2c(OC3CC3)cc(C(=O)NC[C@](O)(c3cc4c(c(-c5ccc(F)cc5Cl)n3)OC[C@]4(C)C(N)=O)C(F)(F)F)cc2cc1Cl [Example 518] |
| < 200 nM | < 500 nM |  | COc1cc(C(=O)NC[C@](O)(c2cc3c(c(-c4ccc5c(c4)OC(F)(F)O5)n2)OC[C@]3(C)C(N)=O)C(F)(F)F)cc2cn(C(F)F)nc12 [Example 591] |
|  | < 500 nM | < 200 nM | COc1cc(C(=O)NC[C@](O)(c2cc3c(c(-c4cccc(F)c4Cl)n2)OC[C@]3(C)C(N)=O)C(F)(F)F)cc2cc(Br)cnc12 [Example 1121] |
| < 200 nM | < 500 nM |  | Cc1cnc2c(Cl)cc(C(=O)NC[C@](O)(c3cc4c(c(-c5ccc(F)cc5Cl)n3)OC[C@]4(C)C(N)=O)C(F)(F)F)cc2c1 [Example 517] |
|  | < 500 nM | < 200 nM | COc1cc(C(=O)NC[C@](O)(c2cc3c(c(-c4ccc(F)c(C(F)(F)F)c4)n2)OC[C@]3(C)C(N)=O)C2CC2)cc2cn(C3CC3)nc12 [Example 871] |
| < 200 nM | < 500 nM |  | COc1cc(C(=O)NC[C@](O)(c2cc3c(c(-c4cc(Cl)c(F)cc4F)n2)OC[C@]3(C)C(N)=O)C2CC2)cc2cn(C(F)F)nc12 [Example 662] |
|  | < 500 nM | < 200 nM | COc1cc(C(=O)NC[C@](O)(c2cc3c(c(-c4ccc5c(c4)OC(F)(F)O5)n2)OC[C@@]3(C(N)=O)C(F)F)C2CC2)cc2cc(Cl)c(C)nc12 [Example 1015] |
| < 200 nM | < 500 nM |  | COc1cc(C(=O)NC[C@](O)(c2cc3c(c(-c4ccc(F)cc4)n2)OC[C@]3(C)C(N)=O)C(F)(F)F)cc2cn(C3(F)CC3)nc12 [Example 820] |
